Measurements taken from patent publication EP2649091B1, “IMMUNE RESTRICTED PEPTIDES WITH INCREASED EFFICACY” (Stichting Het Nederlands Kanker Instituut, priority 2010, dated 2012).
Several values for one entry are separate records, joined by “and”; a condition that tells them apart may be missing. Identical values can stand only once. Where no end group is shown, it is not given here. am‑phg = not defined here; PRG = not defined here

What was measured:
[1] = test system: CD8+ T cells with SVYDFFVWL (Melanoma, TRP-2, residues 180-188) specific T cell receptor; assay: T cell activation time course assay, IFNγ production by FACS, TRP-2 epitope; format: cell-based; conditions: 48H, peptide 50 picomolar
Protocol: (§1) FACS was employed to obtain results.
Also for this epitope, an IFNγ expression time-course experiment was performed. The two distinguishing time points 24H and 48H were taken along at peptide concentrations of 5·10^3 pM, 50 pM and 0.5 pM.

[2] = test system: LLFGLALIEV-specific CD8+ T cells; assay: Mouse vaccination study, tetramer analysis of blood, LLFGLALIEV; format: in vivo; conditions: mice vaccinated with 100 µg peptide with IFA and CpG, all times after day one, versus LLFGLALIEV vaccinated mice
Description: (§2) Three mouse vaccination studies were done using three different wild-type epitopes. In all cases, mice were vaccinated with the peptide supplemented with incomplete freunds ajuvant (IFA) and CpG. Analysis was done by analyzing blood samples with tetramers loaded with wild-type peptide in all cases.
(§3) This was done for both groups of mice.

[3] = test system: T cell line specific for LLFGLALIEV; assay: T cell activation, FACS based interferon-gamma production assay, Mage-C2 LLFGLALIEV
Description: as §1
T cell activation was quantified using the FACS based interferon-gamma production assay as materials and methods section. Table 10 HLA binding and T cell activation of modified Melanoma-associated protein C2 (pp-qq) epitopes used in vaccination studies.

[4] = test system: LLFGLALIEV-specific CD8+ T cells; assay: Mouse vaccination study, LLFGLALIEV tetramer analysis of blood; format: in vivo; conditions: mice vaccinated with 100 µg peptide with IFA and CpG; compared with LLFGLALIEV vaccinated mice, at all times after day one
Description: as §2, §3

[5] = test system: CD8+ T cells from Influenza A positive donors sorted using tetramers containing HLA A2.1::[…]; format: cell-based
[6] = test system: CD8+ T cells from Influenza A positive donors sorted using tetramers containing HLA A2.1::[…]; format: cell-based; remark: listed apart in the source
[7] = biological target: HLA-A0201 (Homo sapiens, UniProt P04439, D140Y/D185E/D98H/E176V/E277Q/G131W/G231S/I119V/I121R/I166T/I218V/L300P/L318F/N151K/N90K/P208A/P217A/Q86G/Q94H/R138H/R169H/T345S); format: binding
[8] = test system: […]-specific CD8+ T cells; assay: Mouse vaccination study, tetramer analysis of blood, […]; format: in vivo; conditions: mice vaccinated with 5 µg peptide with IFA and CpG, booster at day 97, several timepoints, versus […] vaccinated mice
Protocol: as §2
(§4) Two groups of three mice were vaccinated with 5 µg of either […] or [am-phg][NVA]AGIGILT[PRG]. At day 97, mice were administred a second dose (booster). At several timepoints blood was taken and tested for […]-specific CD8+ T cells using tetramers loaded with […]. This was done for both groups of mice.

[9] = test system: HLA-A2::Mart-1(26-35) reactive T cells stimulated by T2 cells; assay: T cell activation time course assay, IFNγ production (FACS), Mart-1 epitope; format: cell-based; conditions: for % CD8+ T cells producing IFN-γ 0H / Geometric mean IFN-γ in arbitrary fluorescence units 0H: time point 0H (basal); for % CD8+ T cells producing IFN-γ 2H / Geometric mean IFN-γ in arbitrary fluorescence units 2H: time point 2H; for % CD8+ T cells producing IFN-γ 4H / Geometric mean IFN-γ in arbitrary fluorescence units 4H: time point 4H; for % CD8+ T cells producing IFN-γ 24H / Geometric mean IFN-γ in arbitrary fluorescence units 24H: time point 24H; for % CD8+ T cells producing IFN-γ 24H / Geometric mean IFN-γ in arbitrary fluorescence units 24H / % CD8+ T cells producing IFN-γ 48H / Geometric mean IFN-γ in arbitrary fluorescence units 48H: free peptide washed away; for % CD8+ T cells producing IFN-γ 48H / Geometric mean IFN-γ in arbitrary fluorescence units 48H: time point 48H
[10] = test system: […]-specific CD8+ T cells; assay: Mouse vaccination study, […] tetramer analysis of blood; format: in vivo; conditions: mice vaccinated with 5 µg peptide with IFA and CpG, booster at day 97; compared with […] vaccinated mice, at all times
Protocol: as §2, §4

## [CSME][2-AOC]YDFFVWL
[1]
  % CD8+ T cells producing IFN-γ: significantly above background level

## [PHG][2-AOC]FGLALIEV [listing 1 of 2 here]
[2]
  LLFGLALIEV-specific CD8+ T cells (specific T cell numbers): higher
[3]
  % Positive TCR recognition % TCR: 13.7%
  Geometric mean in arbitrary fluorescence units Geo TCR: 108 arbitrary fluorescence units

## [PHG][2-AOC]FGLALIEV [listing 2 of 2 here]
[4]
  LLFGLALIEV-specific CD8+ T cells in blood: specific T cell numbers were higher

## [am-phg][2-AOC]YDFFVWL ({am‑phg-2‑AOC}-YDFFVWL; reading uncertain; also: printed as [am-phg][2-AOC]YDFFVWL)
[1]
  % CD8+ T cells producing IFN-γ: significantly above background level

## [am-phg][CpALA]LGFVFTL
[5]
  % CD8+ T cells producing IFN-γ % IFN: 2.2%
  Geometric mean IFN-γ in arbitrary fluorescence units Geo IFN: 259 arbitrary fluorescence units
[6]
  % Positive TCR recognition % TCR: 3.17%
  Geometric mean IFN in arbitrary fluorescence units Geo TCR: 150 arbitrary fluorescence units
[7]
  % inhibition at T=4H and T=24H FP 24h: 91%
  IC50 Ratio: 2

## [am-phg][CpALA]LGFV[4-FPHE]TL
[5]
  % CD8+ T cells producing IFN-γ % IFN: 2.8%
  Geometric mean IFN-γ in arbitrary fluorescence units Geo IFN: 243 arbitrary fluorescence units
[6]
  % Positive TCR recognition % TCR: 3.26%
  Geometric mean IFN in arbitrary fluorescence units Geo TCR: 208 arbitrary fluorescence units
[7]
  % inhibition at T=4H and T=24H FP 4h: 96%
  % inhibition at T=4H and T=24H FP 24h: 96%
  IC50 Ratio: 5

## [am-phg][NLE]LGFV[4-FPHE]TL
[5]
  % CD8+ T cells producing IFN-γ % IFN: 3.0%
  Geometric mean IFN-γ in arbitrary fluorescence units Geo IFN: 221 arbitrary fluorescence units
[6]
  % Positive TCR recognition % TCR: 3.40%
  Geometric mean IFN in arbitrary fluorescence units Geo TCR: 302 arbitrary fluorescence units
[7]
  % inhibition at T=4H and T=24H FP 4h: 82%
  % inhibition at T=4H and T=24H FP 24h: 83%
  IC50 Ratio: 3

## [am-phg][NVA]AGIGILT[PRG]
[8]
  […]-specific CD8+ T cells (specific T cell numbers): higher
[9]; peptide 0.5 pM
  % CD8+ T cells producing IFN-γ 0H: 0%
  Geometric mean IFN-γ in arbitrary fluorescence units 0H: 141 arbitrary fluorescence units
  % CD8+ T cells producing IFN-γ 2H: 25%
  Geometric mean IFN-γ in arbitrary fluorescence units 2H: 197 arbitrary fluorescence units
  % CD8+ T cells producing IFN-γ 4H: 30%
  Geometric mean IFN-γ in arbitrary fluorescence units 4H: 342 arbitrary fluorescence units
  % CD8+ T cells producing IFN-γ 24H: 16%
  Geometric mean IFN-γ in arbitrary fluorescence units 24H: 165 arbitrary fluorescence units
  % CD8+ T cells producing IFN-γ 48H: 3%
  Geometric mean IFN-γ in arbitrary fluorescence units 48H: 105 arbitrary fluorescence units
[9]; peptide 50 pM
  % CD8+ T cells producing IFN-γ 0H: 0%
  Geometric mean IFN-γ in arbitrary fluorescence units 0H: 110 arbitrary fluorescence units
  % CD8+ T cells producing IFN-γ 2H: 28%
  Geometric mean IFN-γ in arbitrary fluorescence units 2H: 252 arbitrary fluorescence units
  % CD8+ T cells producing IFN-γ 4H: 32%
  Geometric mean IFN-γ in arbitrary fluorescence units 4H: 550 arbitrary fluorescence units
  % CD8+ T cells producing IFN-γ 24H: 28%
  Geometric mean IFN-γ in arbitrary fluorescence units 24H: 344 arbitrary fluorescence units
  % CD8+ T cells producing IFN-γ 48H: 18%
  Geometric mean IFN-γ in arbitrary fluorescence units 48H: 222 arbitrary fluorescence units
[7]
  % inhibition at T=4H and T=24H FP 4h: 67%
  % inhibition at T=4H and T=24H FP 24h: 64%
  IC50 Ratio: 8.3 and 8

## [am-phg][NVA]AGIGILT[PRG] ({am‑phg-NVA}-AGIGILT-{PRG}; reading uncertain; also: printed as [am-phg][NVA]AGIGILT[PRG])
[10]
  […]-specific CD8+ T cells in blood: specific T cell numbers were higher

## [am-phg][NVA]LGFV[4-FPHE]TL
[5]
  % CD8+ T cells producing IFN-γ % IFN: 3.4%
  Geometric mean IFN-γ in arbitrary fluorescence units Geo IFN: 242 arbitrary fluorescence units
[6]
  % Positive TCR recognition % TCR: 3.54%
  Geometric mean IFN in arbitrary fluorescence units Geo TCR: 143 arbitrary fluorescence units
[7]
  % inhibition at T=4H and T=24H FP 24h: 97%
  IC50 Ratio: 2

## [am-phg][NVA]YDFFVWL (N-terminal am-phg and NVA)
[1]
  % CD8+ T cells producing IFN-γ: significantly above background level
